Measurements from ChEMBL document CHEMBL1201862, “PubChem BioAssay data set” (2004).
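These data come from cells grown in 96-well plates and exposed to compound for 48 hours at five concentrations. GI50 = concentration required for 50% inhibition of growth.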 The source made the active and inactive calls. Rule as the data show it: active = GI50 up to about 1.1 µM and inactive = higher.

Legend:
Experiment in all cases: NCI-60 cell line screen, 48 h
COLO 205 = system: COLO 205
SW-620 = system: SW-620
EKVX = system: EKVX
SK-OV-3 = system: SK-OV-3
NCI-H23 = system: NCI-H23
TK-10 = system: TK-10
CAKI-1 = system: CAKI-1
DU-145 = system: DU-145
SN12C = system: SN12C
UACC-257 = system: UACC-257
OVCAR-8 = system: OVCAR-8
SNB-19 = system: SNB-19
UO-31 = system: UO-31
Malme-3M = system: Malme-3M
U-251 = system: U-251
KM12 = system: KM12
HOP-62 = system: HOP-62
NCI-H522 = system: NCI-H522
MOLT-4 = system: MOLT-4
K562 = system: K562

Measured: GI50

C=CCO/N=C/c1cc(/N=C(/S)c2ccoc2C)ccc1Cl
inactive: COLO 205 12.4 µM | SW-620 33.8 µM | EKVX 11.9 µM | SK-OV-3 18 µM | NCI-H23 10 µM | TK-10 16.6 µM | CAKI-1 9.84 µM | DU-145 14 µM | SN12C 12.8 µM | UACC-257 14.9 µM | OVCAR-8 13.5 µM | SNB-19 7.28 µM | UO-31 5.15 µM | Malme-3M 15 µM | U-251 13.9 µM | KM12 7.93 µM | HOP-62 14.4 µM | NCI-H522 8.22 µM | MOLT-4 5.71 µM

CC1(C)C(=O)N(O)C(C)(C)N1N=O
inactive: COLO 205 > 10 µM | SW-620 > 10 µM | EKVX > 10 µM | NCI-H23 > 10 µM | K562 > 10 µM | TK-10 > 10 µM | CAKI-1 > 10 µM | DU-145 > 10 µM | SN12C > 10 µM | UACC-257 > 10 µM | OVCAR-8 > 10 µM | SNB-19 > 10 µM | UO-31 > 10 µM | Malme-3M > 10 µM | U-251 > 10 µM | KM12 > 10 µM | HOP-62 > 10 µM | NCI-H522 > 10 µM | MOLT-4 > 10 µM

COC(=O)[C@@H](NC(=O)N(CCC#N)CCCN(C(=O)N[C@H](Cc1ccccc1)C(=O)OC)c1ccccc1)C(C)C
inactive: COLO 205 > 100 µM | SW-620 > 100 µM | EKVX > 100 µM | SK-OV-3 > 100 µM | NCI-H23 > 100 µM | TK-10 > 100 µM | CAKI-1 > 100 µM | DU-145 > 100 µM | SN12C > 100 µM | UACC-257 29.2 µM | OVCAR-8 > 100 µM | SNB-19 > 100 µM | UO-31 97.5 µM | Malme-3M 28.1 µM | U-251 > 100 µM | KM12 > 100 µM | HOP-62 > 100 µM | NCI-H522 40.4 µM | MOLT-4 23 µM

CCCCC(=O)Oc1ccc2c(C)cc(=O)oc2c1
inactive: COLO 205 > 100 µM | SW-620 > 100 µM | EKVX > 100 µM | NCI-H23 > 100 µM | K562 > 100 µM | TK-10 > 100 µM | CAKI-1 > 100 µM | DU-145 > 100 µM | SN12C > 100 µM | UACC-257 > 100 µM | OVCAR-8 > 100 µM | SNB-19 > 100 µM | UO-31 > 100 µM | Malme-3M > 100 µM | U-251 > 100 µM | KM12 > 100 µM | HOP-62 > 100 µM | NCI-H522 > 100 µM | MOLT-4 > 100 µM

O=C(CC(C(=O)c1ccoc1)c1ccco1)c1ccco1 (stereo unspecified)
inactive: COLO 205 > 100 µM | SW-620 > 100 µM | EKVX > 100 µM | SK-OV-3 > 100 µM | NCI-H23 98.4 µM | K562 > 100 µM | TK-10 > 100 µM | CAKI-1 > 100 µM | DU-145 > 100 µM | SN12C > 100 µM | UACC-257 > 100 µM | OVCAR-8 > 100 µM | UO-31 65.9 µM | U-251 > 100 µM | KM12 57 µM | HOP-62 > 100 µM | NCI-H522 > 100 µM | MOLT-4 > 100 µM

O=C1N/N=C\Nc2ccc(cc2)S(=O)(=O)c2ccc(cc2)/N=C\NNC1=O
inactive: COLO 205 > 100 µM | SW-620 > 100 µM | EKVX > 100 µM | SK-OV-3 > 100 µM | NCI-H23 > 100 µM | K562 > 100 µM | TK-10 > 100 µM | CAKI-1 > 100 µM | DU-145 > 100 µM | SN12C > 100 µM | UACC-257 > 100 µM | OVCAR-8 > 100 µM | SNB-19 > 100 µM | UO-31 > 100 µM | U-251 > 100 µM | KM12 > 100 µM | HOP-62 > 100 µM | NCI-H522 > 100 µM | MOLT-4 > 100 µM

CCN(CC)CCn1c2cc3c(cc2c(=O)c2cccnc21)OCO3
inactive: COLO 205 2.85 µM | SW-620 4.26 µM | EKVX 5.14 µM | SK-OV-3 9.84 µM | NCI-H23 8.75 µM | TK-10 6.01 µM | CAKI-1 9.14 µM | DU-145 > 10 µM | SN12C 6.4 µM | UACC-257 6.1 µM | OVCAR-8 4.62 µM | SNB-19 8.07 µM | Malme-3M 4.84 µM | U-251 6.65 µM | KM12 5.94 µM | HOP-62 3.61 µM | NCI-H522 6.71 µM | MOLT-4 3.68 µM
